Data published in patent publication US20250319206A1, “CRISPR/CAS GENE EDITING OF NEH4 AND/OR NEH5 DOMAINS IN NRF2” (Christina Care Gene Editing Institute, Inc., priority 2024, published 2025).

What was measured:
KYSE-410 cells = experiment: Chemosensitivity testing, CellTiter-Glo 2.0 cell viability, KYSE-410 cells; format: cell-based, Human; conditions: for chemosensitivity to Cisplatin restored: cisplatin 72 hr; for sensitivity to cisplatin: exon 4 targeting
Excerpt: The data was plotted with the coefficient of variance.
To evaluate this approach for broad based applications, we executed the same protocol on KYSE-410 cells which originate from the poorly differentiated invasive esophageal squamous cell carcinoma resected from the cervical esophagus of a person prior to treatment^41. First, we confirmed that the DNA sequence of exon 2 and exon 4 was identical and amenable to targeting with CRISPRs sg3, sg76, or sg83 respectively (data not shown). While this may seem like a trivial matter, it is not, particularly with mutator phenotypes in transformed cells. Plated cells were allowed to recover for 24 hours prior to transfection with the same CRISPR complexes as described in FIG. 12. […] These overall levels are generally considered to be a complete genetic disruption of a mammalian gene. The percentage of frameshift mutations created by the action of these guide RNAs mimics those levels seen previously in FADU cells. […] The expression levels of NRF2, NQO1, HMOX1, and GCLC were also assessed, FIG. 13C. […] This analysis further supports that disruption of NRF2 in exon 4 has a higher impact on overcoming chemosensitivity by disrupting its function of activating downstream genes.

[1] = system: NRF2 downstream target genes (NQO1, HMOX1, GCLC); experiment: qPCR gene expression analysis of NRF2 and downstream targets in KYSE-410 cells; format: cell-based, Human; conditions: for NQO1 expression (qPCR): vs wildtype unedited cells, without cisplatin exposure
Protocol: Total RNA was isolated from edited cells using TRIzol reagent and PureLink RNA Mini Kit (Thermo Fisher Scientific, Waltham, MA). Reverse transcription was conducted using the Applied Biosystems High-Capacity RNA-to-cDNA kit (Thermo Fisher Scientific, Waltham, MA). The cDNA was used as the template in the qPCR amplification of GAPDH (Fwd 5′ […]3′ (SEQ ID NO:76), Rev 5′[…]3′ (SEQ ID NO:77)), NRF2 (Fwd 5′[…]3′ (SEQ ID NO:78), Rev 5′[…]3′ (SEQ ID NO:79)), NQO1 (Fwd 5′[…]3′ (SEQ ID NO:80), Rev 5′[…]3′ (SEQ ID NO:81)), HMOX1 (Fwd 5′ […]3′ (SEQ ID NO:82), Rev 5′[…]3′ (SEQ ID NO:83)) and GCLC (Fwd 5′[…]3′ (SEQ ID NO:84), Rev 5′ […]3′ (SEQ ID NO:85)) transcripts using the SsoAdvanced universal SYBR Green Supermix (BioRad, Hercules, CA). The experiment was conducted at least twice with all samples run in duplicate at minimum. Relative expression levels of mRNA were calculated using the Livak method and normalized to the control. The data was plotted with the coefficient of variance.
For all gene editing studies from bench to bedside, it is important to employ a functional assay, accompanied by an internal functional control, to assess the efficiency of CRISPR/Cas activity. In this case, NRF2 is a transcription factor that controls the expression of over 200 genes. Thus, NRF2 disruption can be measured functionally through qPCR analysis of NQO1 expression, a keystone gene controlled by NRF2. NQO1 has been used as a standard measure of NRF2 activity in cancer cells^40. We also use downstream targets HMOX1 and GCLC, two major antioxidant enzymes, to assess NRF2 function.

FaDu cells = conditions: for viability after a single dose of Cisplatin: exon 4 edited, cisplatin 72 hours; for sensitivity to cisplatin: exon 4 targeting
NRF2 = NRF2 western blot in Panc-1 cells; format: cell-based, Human; conditions: edited Panc-1 populations vs unedited, GAPDH loading control
Protocol: Panc-1 cell pellets were collected using a standard RIPA lysis buffer containing protease inhibitor cocktail. Total protein concentration of collected cells was then determined using BCA Protein Assay kit (Pierce, Rockford, IL, USA). The samples were boiled at 95° C. for 10 minutes and then underwent SDS-PAGE on a 10% Mini-PROTEAN TGX Stain-free Protein Gel (BioRad, Cat. 4568033) for 90 min at 100 V. The gel was then transferred to a nitrocellulose membrane using Trans-Blot Turbo Transfer Systems (BioRad, Hercules, CA, USA) with Trans-Blot Turbo RTA Mini 0.2 μm Nitrocellulose Transfer Kit (BioRad Cat. 1704158), mixed molecular weight program, 10 minutes. The blot was placed in 5% milk and blocked at room temperature on shaker for 2 hours. Incubation in primary NRF2 antibody was done overnight at 4° C. on shaker (1:1,000, Abcam ab62352). Membrane was then incubated at room temperature on shaker for 1 hour in NRF2 secondary (1:10,000, Abcam ab205718). The SuperSignal West Dura Extended Duration ECL (Pierce) kit was used on the LI-COR Odyssey FC to visualize bands. […]

## sg76: gRNA targeting exon 4 of NRF2; TCACTTGTTCCTGATATTCC CGG (guide TCACTTGTTCCTGATATTCCCGG; listed as DNA, chemistry not given here)
KYSE-410 cells
  chemosensitivity to Cisplatin restored: restored
  sensitivity to cisplatin: enhanced sensitivity to cisplatin
[1]
  NQO1 expression (qPCR): significantly decreased
FaDu cells
  viability after a single dose of Cisplatin: significant reduction in viability
  sensitivity to cisplatin: enhanced sensitivity to cisplatin

## sg83: gRNA targeting exon 4 of NRF2; GTAGCCCCTGTTGATTTAGA CGG (guide GTAGCCCCTGTTGATTTAGACGG; listed as DNA, chemistry not given here)
KYSE-410 cells
  chemosensitivity to Cisplatin restored: restored
  sensitivity to cisplatin: enhanced sensitivity to cisplatin
[1]; vs exon 2 (sg3) or exon 4 (sg76) targeted cells
  NQO1 and GCLC expression: lower levels of NQO1 and GCLC expression
[1]
  NQO1 expression (qPCR): significantly decreased
NRF2
  NRF2 protein knock down: significant knockdown of protein
FaDu cells
  viability after a single dose of Cisplatin: significant reduction in viability
  sensitivity to cisplatin: enhanced sensitivity to cisplatin
